Measurements: US10627415B2, “Compositions and methods for diagnosing, monitoring, and treating an autoimmune disease” (BOARD OF TRUSTEES OF MICHIGAN STATE UNIVERSITY, priority 2015, dated 2020)
“And” between values parts separate entries of the source, which are not always exact repeats. Equal values may be shown once.

Tests used:
RBCs [1] = assay: C-peptide binding to RBCs (Example 1, supernatant subtraction); type: cell-based; details: RBCs of individual healthy controls; 20 picomoles human C-peptide, 75 micromolar albumin, 2 hours
Protocol: The amount of C-peptide binding to RBCs obtained from MS patients was compared to controls run on the same day. All samples were handled in an identical manner. Briefly, about 10 mL of blood were drawn from each donor; the RBCs were purified by centrifugation. Next, 20 picomoles of human C-peptide were added to a buffer containing 75 micromolar albumin. RBCs were added to this C-peptide and albumin-containing buffer and allowed to incubate for 2 hours. Next, the samples were centrifuged and the moles of C-peptide remaining in the supernatant are subtracted from the original amount added. This provided a value corresponding to the moles of C-peptide bound to the RBCs. […] Importantly, of the 25 MS patient samples analyzed, the values ranged from 2.7 to 4.8 picomoles of C-peptide bound to the RBCs, with 18 of the 25 above 3.2 picomoles. In comparison, one control was 3.1, another was 2.8; all others were below 2.45. Thus, separation exists between groups—approximately […] of bound C-peptide difference.

RBCs [2] = assay: C-peptide binding to RBCs, ELISA of supernatant (Example 2 protocol; hematocrit and storage variations); type: cell-based, human; details: for average C-peptide bound to the RBCs: 7% hematocrit, 20 nM C-peptide, 75 μM BSA (0.5%), 2 hours at 37° C.
Protocol: All samples were handled in an identical manner. Briefly, about 10 mL of blood was drawn from each donor; the RBCs were purified by centrifugation; and the RBCs were suspended in physiological salt solution (PSS). Then RBCs were combined with PSS (containing bovine serum albumin (BSA) as a C-peptide binding facilitator) and C-peptide to generate a mixture having a 7% hematocrit, 20 nM C-peptide, and 75 μM BSA (0.5%). The mixture was allowed to incubate for 2 hours at 37° C. Next, the samples were centrifuged to separate the cells from solution, the solution was diluted 1:50 with double distilled water, and the amount of C-peptide remaining in the solution was determined by ELISA. This provided a value corresponding to the moles of C-peptide bound to the RBCs. […] Whereas blood from the healthy controls bound an average of 1.99±0.32 pmoles C-peptide, blood from MS patients and OND patients bound averages of 3.51±0.59 pmoles of C-peptide and 2.23±0.51 pmoles of C-peptide, respectively. As shown by p values of less than 0.001, the increase in C-peptide binding relative to healthy controls and OND patients is significant.
Experiments were performed to determine the effect of hematocrit on C-peptide binding to RBCs. The experiment was conducted as described above in Experiment 2, except various hematocrits were tested. […] In general, increase the hematocrit results in a substantially linear increase in C-peptide binding when the RBCs are saturated with C-peptide.
Experiments were performed to determine the stability of the whole blood. The experiment was conducted as described above in Experiment 2, except the blood was stored in citrate tubes at 4° C. over a period of 4 days during the experiment. Only blood from healthy patients was tested.
(§1) Experiments were performed to determine the stability of supernatant generated after separating cells from solution as described in Experiment 2. The protocol of Experiment 2 was repeated on blood from healthy patients, but the supernatant was stored at 4° C. for from 1 to 3 days prior to determining C-peptide binding by the RBCs.
as §1, with “−20°” for “4°”, “C.” for “C. for”, “0 (day of draw)” for “1”, “6 weeks” for “3 days”

[3] = test system: Neutrophils from healthy control patients; assay: C-peptide binding to neutrophils; type: cell-based, human; details: 20 nM C-peptide, 1 hour at 37° C.
Protocol: Neutrophils from healthy control patients were also tested. The neutrophils were isolated using techniques known in the art. Briefly, blood was drawn into a heparin-coated vacutainer. An equal volume of 3% Dextran was added to drawn whole blood in sterile 50 mL tubes. After inverting, the tubes were set upright for 30 minutes at room temperature to generate a plurality of layers. The top layer was aspirated and transferred to a new 50 mL tube and centrifuged at 500 g for 10 minutes at 4° C. The resulting top layer was discarded. The resulting pellet was resuspended in 10 mL 0.9% saline. After pooling suspensions together in a single tube, it was underplayed with 10 mL of hypaqu-ficoll and centrifuged at 800 g for 15 minutes at room temperature. The resulting liquid band was removed and the remainder was resuspended in 20 mL 0.2% saline and mixed. 20 mL of 1.6% saline was then added to the suspension and it was centrifuged at 250 g for 6 minutes at 4° C. The supernatant was removed and the pellet was suspended in PBS for use in experiments. The cells were counted and then incubated with 20 nM C-peptide for 1 hour at 37° C. to generate an incubated sample. The incubated sample was centrifuged and the amount of C-peptide in the supernatant was determined by ELISA. The neutrophils were determined to have bound 2.68 attomoles of C-peptide per neutrophil.

[4] = test system: bovine pulmonary artery endothelial cells; assay: C-peptide binding to endothelial cells; type: cell-based; details: 1 hour at 37° C., 10 nM Zn2+ and C-peptide in DMEM containing serum
Protocol: Additional experiments were performed to determine whether a C-peptide facilitator can facilitate binding of C-peptide to cells expressing Glut1 other than RBCs. Endothelial cells (bovine pulmonary artery endothelial cells) were grown to confluency on 12-well tissue culture plates. When the cell reached confluency, they were incubated in Dulbecco's Modified Eagle Medium (DMEM) containing serum for 24 hours. Following incubation, the cells were washed and incubated for 1 hour at 37° C. in the presence of 10 nM Zn^2+ and C-peptide in DMEM containing serum. The endothelial cells were determined to have bound 2.0±0.1 attomoles of C-peptide per endothelial cell.

- C-peptide bound to the RBCs (RBCs [1]): 3.1 and 2.8 and below 2.45
- average C-peptide bound to the RBCs (RBCs [2]; MS patients): 3.51 ± 0.59 pmol
- average C-peptide bound to the RBCs (RBCs [2]; OND patients): 2.23 ± 0.51 pmol
- C-peptide binding (RBCs [2]; healthy blood stored in citrate tubes at 4° C., day 1): 2.38 pmol
- C-peptide binding (RBCs [2]; healthy blood stored in citrate tubes at 4° C., day 2): 2.23 pmol
- C-peptide binding (RBCs [2]; healthy blood stored in citrate tubes at 4° C., day 3): 2.14 pmol
- C-peptide binding (RBCs [2]; healthy blood stored in citrate tubes at 4° C., day 4): 1.83 pmol
- C-peptide binding (RBCs [2]; healthy blood, supernatant stored at 4° C., day 1): 2.23 pmol
- C-peptide binding (RBCs [2]; healthy blood, supernatant stored at 4° C., day 2): 2.17 pmol
- C-peptide binding (RBCs [2]; healthy blood, supernatant stored at 4° C., day 3): 2.20 pmol
- C-peptide binding (RBCs [2]; healthy blood, supernatant stored at −20° C., week 0 (day of draw)): 2.45 pmol
- C-peptide binding (RBCs [2]; healthy blood, supernatant stored at −20° C., week 1): 2.48 pmol
- C-peptide binding (RBCs [2]; healthy blood, supernatant stored at −20° C., week 3): 2.30 pmol
- C-peptide binding (RBCs [2]; healthy blood, supernatant stored at −20° C., week 6): 2.34 pmol
- average C-peptide bound to the RBCs (RBCs [2]; healthy controls): 1.99 ± 0.32 pmol
- C-peptide binding (RBCs [2]; healthy individuals that do not have MS): about 1500 C-peptide molecules per cell
- C-peptide binding by RBCs, Control (RBCs [2]; hematocrit 3.50%): 1.18 pmol
- C-peptide binding by RBCs, MS (RBCs [2]; hematocrit 3.50%): 1.63 pmol
- C-peptide binding by RBCs, Control (RBCs [2]; hematocrit 7%): 2.18 pmol
- C-peptide binding by RBCs, MS (RBCs [2]; hematocrit 7%): 3.38 pmol
- C-peptide binding by RBCs, Control (RBCs [2]; hematocrit 14%): 4.78 pmol
- C-peptide binding by RBCs, MS (RBCs [2]; hematocrit 14%): 6.25 pmol
Substance: C-peptide (EAEDLQVGQVELGGGPGAGSLQPLALEGSLQ; listed as Homo sapiens) [approximately 30 amino acid polypeptide that connects the A and B chain of mature insulin within the proinsulin molecule]
- C-peptide bound [3]: 2.68 attomoles of C-peptide per neutrophil
- C-peptide bound [4]: 2.0±0.1 attomoles of C-peptide per endothelial cell
